Assay results: patent US8008354B2, “Death receptor sensitizing compounds and methods of use therefor” (Burnham Institute for Medical Research, priority 2006, dated 2011)
Structures can show the parent of a compound that is named as a salt.

Tests used:
solid tumor cell lines = assay: MTT cell viability of a spectrum of tumor cell lines with or without CH-11; type: cell-based; conditions: 10 tumor cell lines, CH-11 100 ng/mL, MTT 24 hours
Procedure: FIG. 3. Compounds 6094911, 5809354, and 5569100 sensitize a spectrum of tumor cells to CH-11 anti-FAS antibody. Solid tumor cell lines were seeded overnight in 96 well plates at a density of 1×10^4 cells per well. The next day, cells were treated with increasing concentrations of compound 6094911, 5809354, or 5569100 with (square) or without (circle) CH-11 antibody (100 ng/mL). Cell viability was measured 24 hours later by MTT assay. Cell viability is expressed as a mean percentage of untreated cells+SD (n=3).
Cell death assays. Cell viability was measured by MTT and MTS assays, essentially as described in Schimmer et al. (2004). Absorbance readings were plotted against a standard curve to derive the corresponding cell number, and cell viability was expressed as a percentage relative to untreated cells. Apoptosis was measured by flow cytometric analysis of Annexin V surface expression after staining cells with FITC-anti-Annexin V and propidium iodide (PI) (Biovision, Mountain View, Calif.), as described in Pederson et al. (2002).
To assess the spectrum of activity of the small molecule FAS sensitizers, an additional 9 malignant cell lines derived from breast, ovarian, and prostate carcinomas were treated with increasing concentrations of the sensitizers in the presence or absence of CH-11. […]

FLIP mRNA = FLIP mRNA by quantitative RT-PCR; type: cell-based, human; conditions: for expression of FLIP mRNA: Example 1, responding and non-responding cell lines, 24 hours, long isoform normalized for GAPDH
Procedure: FIG. 7. Effect of FAS-sensitizing compounds on levels of FLIP protein and DISC activation. (A) PPC-1 cells (2×10^5) were seeded into 35 mm plates and treated the next day with various FAS-sensitizing compounds (30 μM), with (+) or without (−) CH-11 antibody (100 ng/mL). As a positive control, cells were treated with CDDO (5 μM). Cell lysates were prepared 24 hours later, normalized for total protein content, and analyzed by SDS-PAGE/immunoblotting using antibodies specific for FLIP or a-tubulin. (B) PPC-1, OVCAR-3, T47D, MDA-MB-468 and DU 145 cells (2×10^5) were seeded into 35 mm plates and treated the next day with 5809354 (40 μM). Cell lysates were prepared 24 hours after treatment, normalized for total protein and analyzed by SDS-PAGE/immunoblotting using antibodies specific for FLIP or β-actin. (C) PPC-1, OVCAR-3, T47D, and DU 145 cells (2×10^5) were seeded into 35 mm plates and treated the next day with 5809354 (40 μM) (black bars) or buffer control (white bars). mRNA was extracted 24 hours after treatment. Levels of the long isoform of FLIP and GAPDH were detected by quantitative RT-PCR. Levels of FLIP were normalized for GAPDH expression and expressed as a mean fold change+SD over buffer treated cells. (D) PPC-1 cells (2×10^5) were seeded into 35 mm plates and treated the next day with various FAS-sensitizing compounds (30 μM) with (+) or without (−) CH-11 (100 ng/mL). Cell lysates were prepared 24 hours after treatment, normalized for total protein, and analyzed by SDS-PAGE/immunoblotting using antibodies specific for caspase-8 and β-actin.
FIG. 13. Small molecule down-regulation of FLIP sensitizes prostate cancer cells to anoikis. (A) PPC-1 cells were seeded overnight in adherent conditions and then treated with increasing concentrations of 5809354 for 16 hours. After incubation, cells were harvested. Total cellular RNA was extracted and mRNA levels of the long isoform of FLIP (FLIPL), the short isoform of FLIP (FLIPS), or rRNA levels of 18S were detected by real-time RT-PCR. Data were normalized using the ΔΔCT method and expressed as the mean±SEM percent of […] expression relative to untreated controls. (B) PPC-1 cells were cultured and treated as in panel A. Total cellular protein was isolated and analyzed by SDS-PAGE immunoblotting using anti-FLIP and anti-Actin antibodies. […] Thirty hours after incubation, cell viability was determined using the MTS assay. […] After incubation, apoptosis was measured by flow cytometry to detect cell surface annexin V expression and PI. […] (E) Cells were harvested, fixed, stained with DAPI, and nuclear morphology analyzed by fluorescence microscopy. […] One week later, cells were stained with methylene blue and the number of colonies counted. […]
Quantitative RT-PCR. […]

4-(4-chloro-2-methylphenoxy)-N-hydroxybutanamide [compound 5809354]
tumor cell lines sensitized to CH-11 (solid tumor cell lines): sensitized the same tumor lines with the exception of HT29 | expression of FLIP mRNA (FLIP mRNA): reduced expression of FLIP mRNA | FLIP mRNA expression (FLIP mRNA; Example 2, PPC-1 cells, increasing concentrations, 16 hours): concentration-dependent decrease

CCn1c(=N)n(CC(=O)c2cc(C(C)(C)C)c(O)c(C(C)(C)C)c2)c2ccccc21 [compound 5569100, 1-(3,5-di-tert-butyl-4-hydroxyphenyl)-2-(3-ethyl-2-imino-2,3-dihydro-1H-benzo[d]imidazol-1-yl)ethanone hydrobromide]
expression of FLIP mRNA (FLIP mRNA): did not reduce FLIP mRNA

CC(=O)CC(=O)Nc1ccc(Cl)c(C(F)(F)F)c1 [compound 6094911, N-[4-chloro-3-(trifluoromethyl)phenyl]-3-oxobutanamide]
tumor cell lines sensitized to CH-11 (solid tumor cell lines): 4 of 10 | expression of FLIP mRNA (FLIP mRNA): did not reduce FLIP mRNA
